One experiment concerns the target T1, human TLR7 (Homo sapiens, UniProt Q9NYK1).
T1 construct: host or cells: HEK-Blue TLR7 cells (engineered human embryonic kidney cells)
T1 sequence (Q9NYK1 27-1049): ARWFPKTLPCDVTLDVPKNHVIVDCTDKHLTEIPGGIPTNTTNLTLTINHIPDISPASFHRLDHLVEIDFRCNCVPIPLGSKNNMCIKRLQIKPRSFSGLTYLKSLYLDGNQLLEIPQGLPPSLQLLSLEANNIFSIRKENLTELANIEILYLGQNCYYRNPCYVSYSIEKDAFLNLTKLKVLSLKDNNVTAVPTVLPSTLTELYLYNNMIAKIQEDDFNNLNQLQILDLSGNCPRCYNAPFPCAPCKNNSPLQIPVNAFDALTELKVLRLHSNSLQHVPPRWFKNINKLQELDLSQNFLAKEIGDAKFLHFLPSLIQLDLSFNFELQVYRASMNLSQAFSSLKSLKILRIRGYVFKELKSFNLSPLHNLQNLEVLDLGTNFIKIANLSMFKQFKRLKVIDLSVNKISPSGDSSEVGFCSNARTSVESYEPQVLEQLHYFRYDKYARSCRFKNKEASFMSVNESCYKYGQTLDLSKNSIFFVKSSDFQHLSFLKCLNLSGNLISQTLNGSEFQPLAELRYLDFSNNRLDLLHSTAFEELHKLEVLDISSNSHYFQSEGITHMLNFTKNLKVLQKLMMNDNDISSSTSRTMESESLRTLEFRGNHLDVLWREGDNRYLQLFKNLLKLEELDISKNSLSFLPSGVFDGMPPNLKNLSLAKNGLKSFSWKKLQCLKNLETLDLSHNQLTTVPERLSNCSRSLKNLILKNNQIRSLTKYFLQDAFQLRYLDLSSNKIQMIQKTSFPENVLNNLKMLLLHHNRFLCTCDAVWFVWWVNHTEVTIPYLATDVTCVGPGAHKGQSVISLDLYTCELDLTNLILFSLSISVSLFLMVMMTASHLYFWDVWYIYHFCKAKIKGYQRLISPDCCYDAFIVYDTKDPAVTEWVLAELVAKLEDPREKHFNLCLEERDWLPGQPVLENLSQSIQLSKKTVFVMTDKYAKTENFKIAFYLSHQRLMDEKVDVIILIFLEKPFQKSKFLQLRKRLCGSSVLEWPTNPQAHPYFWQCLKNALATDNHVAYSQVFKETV
The experiment in a line: HEK-Blue TLR7 reporter assay (SEAP reporter). Format: cell-based. The following applies: HEK-Blue TLR7 cells, 18 h treatment, SEAP readout; average if more than one assay; read-out: TLR7 Agonism HEK Blue ™ Assay EC50. From the text:
Table A presents biological activity data for compounds disclosed herein. One set of data relates TLR7 agonism activity using the HEK-Blue™ TLR7 reporter assay, as described in Example 11 hereinbelow. Another set of data relates to the induction of interleukin 6 (IL-6), a cytokine that plays an important role in the TLR7 pathway. […] In some instances, more that one TLR7 agonism or IL-6 induction assay was made; if so, the reported value is an average.
This example describes a method for assaying TLR7 agonist activity of the compounds disclosed in this specification.
HEK-Blue™ TLR7 cells were added to each well of a 384-well tissue-culture plate (15,000 cells per well) and incubated 16-18 h at 37° C., 5% CO2. Compounds (100 nl) were dispensed into wells containing the HEK-Blue™ TLR cells and the treated cells were incubated at 37° C., 5% CO2. After 18 h treatment ten microliters of freshly-prepared Quanti-Blue™ reagent (Invivogen) was added to each well, incubated for 30 min (37° C., 5% CO2) and SEAP levels measured using an Envision plate reader (OD=620 nm). […] EC50's can be determined with software such as Graphpad Prism™.
In general terms: Reporter assays use an easily measured gene product as a stand-in for the process of interest.

For another experiment, the system named is interleukin 6 (IL-6). In words: Interleukin 6 induction assay in human whole blood (AlphaLISA). The class given is cell-based. The following applies: 20 h at 37° C., 100% set by resiquimod reference at 10 μM, average if more than one assay, read-out: IL-6 Induction EC50 (nM) (normalized 10 μM). An excerpt:
Table A presents biological activity data for compounds disclosed herein. One set of data relates TLR7 agonism activity using the HEK-Blue™ TLR7 reporter assay, as described in Example 11 hereinbelow. Another set of data relates to the induction of interleukin 6 (IL-6), a cytokine that plays an important role in the TLR7 pathway. […] In some instances, more that one TLR7 agonism or IL-6 induction assay was made; if so, the reported value is an average. This example describes a method for assaying interleukin 6 (IL 6) induction by compounds disclosed in this specification. Compounds suspended in DMSO were transferred to individual wells of a Matrix Technologies clear, V-bottom 384-well plate using ECHO acoustic liquid handling technology (25 nL per well). Human whole-blood samples (25 uL) were added to each well using a CyBio FeliX liquid handling instrument and the plate was shaken on a plate shaker for three minutes before incubating the reaction mixtures at 37° C. for 20 h. Basel RPMI 1640 medium (supplemented with L-glutamine) was then added to each well (25 uL per well) prior to liberating plasma from each sample by centrifugation (450×g, 5 min, ambient temperature). Treated plasma samples (3 uL) were subsequently transferred to individual wells of a white, shallow, 384-well ProxiPlate (PerkinElmer) using the FeliX liquid handling instrument and their IL6 levels were measured using AlphaLISA technology as described by the manufacturer (PerkinElmer).
On the technique in general: In Alpha technology, singlet oxygen from a donor bead excites a nearby acceptor bead.

Each structure is given as a SMILES string. Read-outs that look alike come from different tables or passages of the source.

What is called EC50 is the concentration needed to bring the measured effect to its halfway point. Consider `Nc1nc2nc3c1nc(O)n3Cc1ccc(-c3ccc(CNC4CCC4)cc3)c(c1)C/C=C\CCO2` [IIb-11], for which the EC50 at human TLR7 amounted to 0.33 nM; in the experiment on interleukin 6 (IL-6) (Homo sapiens, 20 h), 0.68 nM.

As for `Nc1nc2nc3c1nc(O)n3Cc1ccc(-c3ccc(CNC4CCC4)cc3)c(c1)CCCCCO2` [IIb-12], the EC50 at human TLR7 came to 4.2 nM; in the experiment on interleukin 6 (IL-6) (Homo sapiens, 20 h), 13 nM.

Regarding `Nc1nc2nc3c1nc(O)n3Cc1ccc(-c3cnc(CNC4CCC4)s3)c(c1)C/C=C/CCO2` [IIb-13], the EC50 was 0.24 nM at human TLR7 and 4.3 nM in the experiment on interleukin 6 (IL-6) (Homo sapiens, 20 h).

With `Nc1nc2nc3c1nc(O)n3Cc1ccc(-c3cc(CNC4CCC4)[nH]n3)c(c1)C/C=C/CCO2` [IIb-14], the EC50 amounted to 3 nM at human TLR7 and 5.3 nM in the experiment on interleukin 6 (IL-6) (Homo sapiens, 20 h).

On to `Nc1nc2nc3c1nc(O)n3Cc1ccc(-c3cc(CNC4CCC4)[nH]n3)c(c1)C/C=C\CCO2` [IIb-15], for which the EC50 stood at 0.65 nM at human TLR7 and 4.7 nM in the experiment on interleukin 6 (IL-6) (Homo sapiens, 20 h).

Regarding `Nc1nc2nc3c1nc(O)n3Cc1ccc(-c3ccc(CNC4CCC4)cc3)c(c1)C/C=C/CCCO2` [IIb-16], the EC50 was found to be 1.2 nM on human TLR7 and 3.6 nM in the experiment with interleukin 6 (IL-6) (Homo sapiens, 20 h).

Turning to `Nc1nc2nc3c1nc(O)n3Cc1ccc(-c3ccc(CNC4CCC4)cc3)c(c1)C/C=C\CCCO2` [IIb-17], the EC50 on human TLR7 turned out to be 0.91 nM; in the experiment on interleukin 6 (IL-6) (Homo sapiens, 20 h), 0.99 nM.

With `Nc1nc2nc3c1nc(O)n3Cc1ccc(-c3ccc(CNC4CCC4)cc3)c(c1)CCCCCCO2` [IIb-18], the EC50 on human TLR7 turned out to be 3.8 nM; in the experiment on interleukin 6 (IL-6) (Homo sapiens, 20 h), 34 nM.

Turning to `Nc1nc2nc3c1nc(O)n3Cc1ccc(-c3ccc(CNC4CCC4)cc3)c(c1)OCCCCO2` [IIb-19], the EC50 on human TLR7 is 1 nM; in the experiment with interleukin 6 (IL-6) (Homo sapiens, 20 h), 1.4 nM.

Consider `Nc1nc2nc3c1nc(O)n3Cc1ccc(-c3ccc(CNC4CCC4)cc3)c(c1)OCCCO2` [IIb-20], for which the EC50 on human TLR7 was 56 nM; in the experiment with interleukin 6 (IL-6) (Homo sapiens, 20 h) it was 150 nM.

With `Nc1nc2nc3c1nc(O)n3Cc1ccc(-c3ccc(CNC4CC(O)C4)cc3)c(c1)C/C=C\CCO2` (stereo not shown) [IIb-22], the EC50 on human TLR7 came to 0.42 nM; in the experiment on interleukin 6 (IL-6) (Homo sapiens, 20 h), 1.4 nM.

In the case of `Nc1nc2nc3c1nc(O)n3Cc1ccc(-c3ccc(CNC4CC(O)C4)cc3)c(c1)C/C=C/CCO2` (stereo not shown) [IIb-23], the EC50 at human TLR7 was 0.81 nM; with interleukin 6 (IL-6) (Homo sapiens, 20 h), 2 nM.

For `Nc1nc2nc3c1nc(O)n3Cc1ccc(-c3ccc(CNC4CC(O)C4)cc3)c(c1)C/C=C/CCO2` (stereo not shown) [IIb-24], the EC50 at human TLR7 worked out at 0.68 nM; in the experiment with interleukin 6 (IL-6), 2.7 nM.

Consider `Nc1nc2nc3c1nc(O)n3Cc1ccc(-c3ccc(CNC4CC(F)(F)C4)cc3)c(c1)C/C=C/CCO2` [IIb-25], for which the 50% effective concentration (EC50) at human TLR7 was determined as 1.5 nM; in the experiment with interleukin 6 (IL-6) (Homo sapiens, 20 h), 0.81 nM.

On to `CC1(NCc2ccc(-c3ccc4cc3C/C=C/CCOc3nc(N)c5nc(O)n(c5n3)C4)cc2)CCC1` [IIb-26], for which the EC50 at human TLR7 is 0.26 nM; in the experiment on interleukin 6 (IL-6) (Homo sapiens, 20 h) it was 1 nM.

Take `CC(=O)N1CC(NCc2ccc(-c3ccc4cc3C/C=C\CCOc3nc(N)c5nc(O)n(c5n3)C4)cc2)C1` [IIb-27]: the EC50 on human TLR7 was found to be 0.62 nM; with interleukin 6 (IL-6) (Homo sapiens, 20 h), 4 nM.

Consider `Nc1nc2nc3c1nc(O)n3Cc1ccc(-c3cccc(C(=O)NC4CNC4)c3)c(c1)C/C=C\CCO2` [IIb-29], for which the EC50 at human TLR7 came out at 3.2 nM; with interleukin 6 (IL-6) (Homo sapiens, 20 h), 24 nM.

Consider `Nc1nc2nc3c1nc(O)n3Cc1ccc(-c3ccc(C(=O)NC4CNC4)cc3)c(c1)C/C=C\CCO2` [IIb-30], for which the EC50 on human TLR7 came to 1.6 nM; in the experiment on interleukin 6 (IL-6) (Homo sapiens, 20 h), 36 nM.

Consider `Nc1nc2nc3c1nc(O)n3Cc1ccc(-c3cccc(C(=O)NC4CNC4)c3)c(c1)C/C=C/CCO2` [IIb-31], for which the concentration for a half-maximal effect (EC50) on human TLR7 was 6.8 nM; in the experiment on interleukin 6 (IL-6) (Homo sapiens, 20 h), 28 nM.

For `Nc1nc2nc3c1nc(O)n3Cc1ccc(-c3ccc(C(=O)NC4CNC4)cc3)c(c1)C/C=C/CCO2` [IIb-32], the EC50 at human TLR7 is 4.1 nM; in the experiment with interleukin 6 (IL-6) (Homo sapiens, 20 h) it was 32 nM.

Turning to `Nc1nc2nc3c1nc(O)n3Cc1ccc(-c3ccc(CNC4CCOCC4)cc3)c(c1)C/C=C\CCO2` [IIb-34], the EC50 on human TLR7 was 0.12 nM; in the experiment with interleukin 6 (IL-6) (Homo sapiens, 20 h), 0.76 nM.

Take `Nc1nc2nc3c1nc(O)n3Cc1ccc(-c3cnn(CCN4CCOCC4)c3)c(c1)C/C=C/CCO2` [IIb-37]: the EC50 on human TLR7 is 3.8 nM; in the experiment on interleukin 6 (IL-6) (Homo sapiens, 20 h) it was 180 nM.

For `Nc1nc2nc3c1nc(O)n3Cc1ccc(-c3cnn(CC(=O)NC4CNC4)c3)c(c1)C/C=C/CCO2` [IIb-38], the EC50 at human TLR7 was 22 nM; in the experiment with interleukin 6 (IL-6) (Homo sapiens, 20 h), 1000 nM.

Turning to `Nc1nc2nc3c1nc(O)n3Cc1ccc(-c3cc(C(=O)NCCCN4CCCC4=O)[nH]n3)c(c1)C/C=C/CCO2` [IIb-40], the EC50 on human TLR7 is 14 nM; in the experiment on interleukin 6 (IL-6) (Homo sapiens, 20 h) it was 160 nM.

Take `Nc1nc2nc3c1nc(O)n3Cc1ccc(OC3CCNCC3)c(c1)C/C=C/CCO2` [IIc-01]: the EC50 turned out to be 3.7 nM at human TLR7 and 5 nM with interleukin 6 (IL-6) (Homo sapiens, 20 h).

As to `Nc1nc2nc3c1nc(O)n3Cc1cc(cc(OC3CCNCC3)c1)C/C=C/CCO2` [IIc-02], the EC50 on human TLR7 was determined as 23 nM; in the experiment on interleukin 6 (IL-6) (Homo sapiens, 20 h), 200 nM.

As to `Nc1nc2nc3c1nc(O)n3Cc1ccc(Nc3cccc(CNC4CCC4)c3)c(c1)C/C=C/CCO2` [IId-01], the EC50 stood at 15 nM on human TLR7 and 60 nM in the experiment on interleukin 6 (IL-6) (Homo sapiens, 20 h).

Turning to `Nc1nc2nc3c1nc(O)n3Cc1ccc(OCC(=O)NC3CNC3)c(c1)C/C=C\CCO2` [IIe-01], the EC50 on human TLR7 is 5.3 nM; in the experiment with interleukin 6 (IL-6) (Homo sapiens, 20 h), 40 nM.

Turning to `Nc1nc2nc3c1nc(O)n3Cc1ccc(OCC(=O)NC3CNC3)c(c1)C/C=C/CCO2` [IIe-02], the EC50 at human TLR7 turned out to be 70 nM; in the experiment with interleukin 6 (IL-6) (Homo sapiens, 20 h), 1100 nM.

(Values after patent US11485741B2, “Macrocyclic toll-like receptor 7 (TLR7) agonists” (BRISTOL-MYERS SQUIBB COMPANY, priority 2018, dated 2022).)
